Measured values taken from patent US10112929B2, “Lactams as inhibitors of rock” (BRISTOL-MYERS SQUIBB COMPANY, priority 2015, dated 2018).

Biological target: ROCK2 (Homo sapiens (Human), UniProt O75116)
Assay: biochemical
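Note: rho kinase enzyme reaction halted with EDTA, phospho- and non-phospho peptide separated for read-out, kinase activity inhibition derived across a dose-response series, DMSO under 2%.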

Sequence of ROCK2 (O75116 whole entry, species assumed): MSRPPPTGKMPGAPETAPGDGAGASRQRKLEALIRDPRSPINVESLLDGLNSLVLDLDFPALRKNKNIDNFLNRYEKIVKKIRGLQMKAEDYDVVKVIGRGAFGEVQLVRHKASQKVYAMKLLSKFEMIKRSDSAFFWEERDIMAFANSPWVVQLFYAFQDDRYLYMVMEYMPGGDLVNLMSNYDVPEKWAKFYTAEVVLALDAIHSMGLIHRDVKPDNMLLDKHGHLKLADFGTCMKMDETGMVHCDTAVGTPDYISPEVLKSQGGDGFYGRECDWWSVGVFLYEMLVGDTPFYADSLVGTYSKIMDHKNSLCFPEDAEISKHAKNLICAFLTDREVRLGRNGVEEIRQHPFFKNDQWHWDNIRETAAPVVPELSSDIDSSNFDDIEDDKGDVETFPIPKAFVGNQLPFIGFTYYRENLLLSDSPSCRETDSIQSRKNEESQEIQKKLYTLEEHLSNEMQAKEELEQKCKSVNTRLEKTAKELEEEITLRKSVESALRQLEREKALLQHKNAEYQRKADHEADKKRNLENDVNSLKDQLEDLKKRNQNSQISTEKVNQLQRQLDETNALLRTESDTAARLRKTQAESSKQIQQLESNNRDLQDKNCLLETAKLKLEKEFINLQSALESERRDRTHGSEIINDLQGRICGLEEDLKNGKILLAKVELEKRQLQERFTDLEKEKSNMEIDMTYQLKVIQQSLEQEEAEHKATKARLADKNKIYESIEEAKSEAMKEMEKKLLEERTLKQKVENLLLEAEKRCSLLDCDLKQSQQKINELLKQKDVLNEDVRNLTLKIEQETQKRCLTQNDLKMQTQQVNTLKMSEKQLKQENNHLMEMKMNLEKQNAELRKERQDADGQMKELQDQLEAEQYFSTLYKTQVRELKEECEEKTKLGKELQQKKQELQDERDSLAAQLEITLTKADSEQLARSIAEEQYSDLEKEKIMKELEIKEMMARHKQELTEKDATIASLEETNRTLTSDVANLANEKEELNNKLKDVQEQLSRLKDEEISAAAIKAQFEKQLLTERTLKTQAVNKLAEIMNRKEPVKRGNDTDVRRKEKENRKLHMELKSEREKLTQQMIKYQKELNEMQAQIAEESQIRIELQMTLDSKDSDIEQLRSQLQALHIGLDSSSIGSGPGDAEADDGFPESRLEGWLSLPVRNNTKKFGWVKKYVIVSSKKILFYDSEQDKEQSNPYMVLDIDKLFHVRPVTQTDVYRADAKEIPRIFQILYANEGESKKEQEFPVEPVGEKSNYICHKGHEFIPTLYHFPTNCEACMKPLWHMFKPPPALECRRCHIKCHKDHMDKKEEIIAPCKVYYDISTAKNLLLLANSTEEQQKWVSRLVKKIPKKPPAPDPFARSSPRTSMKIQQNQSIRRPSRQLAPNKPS

Compound | IC50
O=C1[C@H](N2CCc3ccccc32)CCN1c1ccc(-c2cn[nH]c2)cc1 [Example 393, (R)-1-(4-(1H-pyrazol-4-yl)phenyl)-3-(indolin-1-yl)pyrrolidin-2-one] | 10 to 100 nM
COc1cccc(N(C)C2CCN(c3ccc(-c4cn[nH]c4)cc3)C2=O)c1 (single isomer, unassigned) [Example 31, 1-(4-(1H-pyrazol-4-yl)phenyl)-3-((3-methoxyphenyl)(methyl)amino)pyrrolidin-2-one] | 100 to 2200 nM
COc1cc(F)cc(NC2CCN(c3ccc(-c4cn[nH]c4)c(C(F)(F)F)c3)C2=O)c1 (single isomer, unassigned) [Example 369, 1-(4-(1H-pyrazol-4-yl)-3-(trifluoromethyl)phenyl)-3-((3-fluoro-5-methoxyphenyl)amino)pyrrolidin-2-one] | 100 to 2200 nM
COc1cc(N2CCC(Nc3cccc(F)c3)C2=O)ccc1-c1cn[nH]c1 (centres unmarked) [Example 72, 3-((3-fluorophenyl)amino)-1-(3-methoxy-4-(1H-pyrazol-4-yl)phenyl)pyrrolidin-2-one] | < 10 nM
COc1cc(NC2CCN(c3cc(F)c(-c4cn[nH]c4)cc3F)C2=O)ccc1F (single isomer, unassigned) [Example 349, 1-(2,5-difluoro-4-(1H-pyrazol-4-yl)phenyl)-3-((4-fluoro-3-methoxyphenyl)amino)pyrrolidin-2-one] | 10 to 100 nM
COc1nc(N2CCC(N3CCOc4ccccc43)C2=O)ccc1-c1cn[nH]c1 (single isomer, unassigned) [Example 229, 3-(2H-benzo[b][1,4]oxazin-4(3H)-yl)-1-(6-methoxy-5-(1H-pyrazol-4-yl)pyridin-2-yl)pyrrolidin-2-one] | 10 to 100 nM
COCc1cc(N2CCC(Nc3cccc(OC)c3)C2=O)ccc1-c1cn[nH]c1 (single isomer, unassigned) [Example 183, 1-(3-(methoxymethyl)-4-(1H-pyrazol-4-yl)phenyl)-3-((3-methoxyphenyl)amino) pyrrolidin-2-one] | 100 to 2200 nM
COc1cc(NC2CCN(c3ccc(-c4cn[nH]c4)c(OC)c3)C2=O)ccc1F (single isomer, unassigned) [Example 154, 3-((4-fluoro-3-methoxyphenyl)amino)-1-(3-methoxy-4-(1H-pyrazol-4-yl)phenyl) pyrrolidin-2-one] | 100 to 2200 nM
O=C1C(Cc2cccc(F)c2)CCN1c1ccc(-c2cn[nH]c2)cc1 (centres unmarked) [Example 91, 1-(4-(1H-pyrazol-4-yl)phenyl)-3-(3-fluorobenzyl)pyrrolidin-2-one] | 100 to 2200 nM
COc1cc(N2CCC(Nc3cc(F)cc(F)c3)C2=O)ccc1-c1cn[nH]c1 (single isomer, unassigned) [Example 146, 3-((3,5-difluorophenyl)amino)-1-(3-methoxy-4-(1H-pyrazol-4-yl)phenyl) pyrrolidin-2-one] | < 10 nM
CCOc1cccc(NC2CCN(c3ccc(-c4cn[nH]c4)c(OC)c3)C2=O)c1 (single isomer, unassigned) [Example 250, 3-((3-ethoxyphenyl)amino)-1-(3-methoxy-4-(1H-pyrazol-4-yl)phenyl)pyrrolidin-2-one] | < 10 nM
COc1nc(N2CCC(N3CCc4cccnc43)C2=O)ccc1-c1cn[nH]c1 (racemic) [Example 281, 3-(2,3-dihydro-1H-pyrrolo[2,3-b]pyridin-1-yl)-1-(6-methoxy-5-(1H-pyrazol-4-yl)pyridin-2-yl)pyrrolidin-2-one] | 10 to 100 nM
N#Cc1cccc(N[C@@H]2CCN(c3ccc(-c4cn[nH]c4)cc3)C2=O)c1 [Example 387, (R)-3-((1-(4-(1H-pyrazol-4-yl)phenyl)-2-oxopyrrolidin-3-yl)amino)benzonitrile] | 10 to 100 nM
COc1nc(N2CCC(N3CCCC(C)(C)C3)C2=O)ccc1-c1cn[nH]c1 (racemic) [Example 278, 3-(3,3-dimethylpiperidin-1-yl)-1-(6-methoxy-5-(1H-pyrazol-4-yl)pyridin-2-yl)pyrrolidin-2-one] | 100 to 2200 nM
